Source: patent publication US20030237103A1, “Methods and compositions for pharmacological and toxicological evaluation of test agents” (priority 2002, published 2003)

System: Panel, parental and outbred (CD-IGS) rat strains
Assay: Clinical chemistry endpoints of gentamicin-treated vs. vehicle rats
Details: for T-test value ALB / T-test value ALP / T-test value ALT / T-test value ANION GAP / T-test value AST / T-test value BICARB / T-test value BUN / T-test value CA / T-test value CHOL / T-test value CREAT / T-test value GGT / T-test value GLOB / T-test value GLU / T-test value K / T-test value NA / T-test value PHOS / T-test value TBIL / T-test value TP / T-test value TRIG: 240 mg/Kg gentamicin vs. vehicle
Excerpt: Percent increase is defined as[(mean drug—mean vehicle control)/mean vehicle control×100] for each strain tested. The number of animals tested in each group is noted below the strain designation in parenthesis as #drug treated animals per #vehicle treated animals.
We sought to maximize the range of genetic susceptibility to the adverse drug effects across the strains.

gentamicin
nephrotoxic phenotypes at the first dose (120 mg/kg gentamicin, all strains (not shown)): did not produce a robust set of phenotypes, except in LEW rats | T-test value ALB (BN rats): 0.028 | T-test value ALP (BN rats): 0.040 | T-test value ALT (BN rats): 0.618 | T-test value ANION GAP (BN rats): 0.369 | T-test value AST (BN rats): 0.110 | T-test value BICARB (BN rats): 0.642 | T-test value BUN (BN rats): 0.003 | T-test value CA (BN rats): 0.460 | T-test value CHOL (BN rats): 0.092 | T-test value CREAT (BN rats): 0.005 | T-test value GGT (BN rats): 0.121 | T-test value GLOB (BN rats): 0.517 | T-test value GLU (BN rats): 0.937 | T-test value K (BN rats): 0.264 | T-test value NA (BN rats): 0.036 | T-test value PHOS (BN rats): 0.021 | T-test value TBIL (BN rats): 0.040 | T-test value TP (BN rats): 0.133 | T-test value TRIG (BN rats): 0.042 | T-test value ALB (BNxF344 rats): 0.089 | T-test value ALP (BNxF344 rats): 0.000 | T-test value ALT (BNxF344 rats): 0.171 | T-test value ANION GAP (BNxF344 rats): 0.770 | T-test value AST (BNxF344 rats): 0.005 | T-test value BICARB (BNxF344 rats): 0.765 | T-test value BUN (BNxF344 rats): 0.000 | T-test value CA (BNxF344 rats): 0.397 | T-test value CHOL (BNxF344 rats): 0.216 | T-test value CREAT (BNxF344 rats): 0.000 | T-test value GLOB (BNxF344 rats): 0.165 | T-test value GLU (BNxF344 rats): 0.434 | T-test value K (BNxF344 rats): 0.899 | T-test value NA (BNxF344 rats): 0.128 | T-test value PHOS (BNxF344 rats): 0.657 | T-test value TBIL (BNxF344 rats): 0.745 | T-test value TP (BNxF344 rats): 0.802 | T-test value TRIG (BNxF344 rats): 0.000 | T-test value ALB (CD-IGS rats): 0.493 | T-test value ALP (CD-IGS rats): 0.312 | T-test value ALT (CD-IGS rats): 0.714 | T-test value ANION GAP (CD-IGS rats): 0.222 | T-test value AST (CD-IGS rats): 0.740 | T-test value BICARB (CD-IGS rats): 0.030 | T-test value BUN (CD-IGS rats): 0.013 | T-test value CA (CD-IGS rats): 0.078 | T-test value CHOL (CD-IGS rats): 0.742 | T-test value CREAT (CD-IGS rats): 0.024 | T-test value GGT (CD-IGS rats): 0.331 | T-test value GLOB (CD-IGS rats): 0.252 | T-test value GLU (CD-IGS rats): 0.104 | T-test value K (CD-IGS rats): 0.229 | T-test value NA (CD-IGS rats): 0.138 | T-test value PHOS (CD-IGS rats): 0.620 | T-test value TBIL (CD-IGS rats): 0.720 | T-test value TP (CD-IGS rats): 0.807 | T-test value TRIG (CD-IGS rats): 0.946 | T-test value ALB (F344 rats): 0.002 | T-test value ALP (F344 rats): 0.017 | T-test value ALT (F344 rats): 0.108 | T-test value ANION GAP (F344 rats): 0.428 | T-test value AST (F344 rats): 0.304 | T-test value BICARB (F344 rats): 0.080 | T-test value BUN (F344 rats): 0.015 | T-test value CA (F344 rats): 0.637 | T-test value CHOL (F344 rats): 0.811 | T-test value CREAT (F344 rats): 0.006 | T-test value GGT (F344 rats): 0.363 | T-test value GLOB (F344 rats): 0.170 | T-test value GLU (F344 rats): 0.169 | T-test value K (F344 rats): 0.287 | T-test value NA (F344 rats): 0.020 | T-test value PHOS (F344 rats): 0.350 | T-test value TBIL (F344 rats): 0.969 | T-test value TP (F344 rats): 0.000 | T-test value TRIG (F344 rats): 0.052 | T-test value ALB (LEW rats): 0.015 | T-test value ALP (LEW rats): 0.419 | T-test value ALT (LEW rats): 0.080 | T-test value ANION GAP (LEW rats): 0.283 | T-test value AST (LEW rats): 0.754 | T-test value BICARB (LEW rats): 0.061 | T-test value BUN (LEW rats): 0.002 | T-test value CA (LEW rats): 0.000 | T-test value CHOL (LEW rats): 0.007 | T-test value CREAT (LEW rats): 0.006 | T-test value GLOB (LEW rats): 0.167 | T-test value GLU (LEW rats): 0.318 | T-test value K (LEW rats): 0.349 | T-test value NA (LEW rats): 0.361 | T-test value PHOS (LEW rats): 0.203 | T-test value TBIL (LEW rats): 0.648 | T-test value TP (LEW rats): 0.102 | T-test value TRIG (LEW rats): 0.405 | T-test value ALB (LEWxBN rats): 0.081 | T-test value ALP (LEWxBN rats): 0.005 | T-test value ALT (LEWxBN rats): 0.293 | T-test value ANION GAP (LEWxBN rats): 0.071 | T-test value AST (LEWxBN rats): 0.417 | T-test value BICARB (LEWxBN rats): 0.076 | T-test value BUN (LEWxBN rats): 0.001 | T-test value CA (LEWxBN rats): 0.000 | T-test value CHOL (LEWxBN rats): 0.533 | T-test value CREAT (LEWxBN rats): 0.002 | T-test value GLOB (LEWxBN rats): 0.419 | T-test value GLU (LEWxBN rats): 0.016 | T-test value K (LEWxBN rats): 0.145 | T-test value NA (LEWxBN rats): 0.955 | T-test value PHOS (LEWxBN rats): 0.431 | T-test value TBIL (LEWxBN rats): 0.060 | T-test value TP (LEWxBN rats): 0.434 | T-test value TRIG (LEWxBN rats): 0.037 | T-test value ALB (LEWxF344 rats): 0.071 | T-test value ALP (LEWxF344 rats): 0.144 | T-test value ALT (LEWxF344 rats): 0.380 | T-test value ANION GAP (LEWxF344 rats): 0.157 | T-test value AST (LEWxF344 rats): 0.375 | T-test value BICARB (LEWxF344 rats): 0.114 | T-test value BUN (LEWxF344 rats): 0.019 | T-test value CA (LEWxF344 rats): 0.777 | T-test value CHOL (LEWxF344 rats): 0.889
